The record followed here is publication PMC12040169 (PLOS Biology, 2025).

The structures appear in SMILES notation.

The data set in a line: in vitro. The following applies: human, hela cells, % viability.
`O=C(CCn1c(-c2ccncc2)cc2cccnc21)N1CCCC1` [CBK282151]: the viability at 28.5 h, 10 µM was determined as 96.7%. The result for `CC1CCCN(C(=O)CCn2c(-c3ccncc3)cc3cccnc32)C1` (stereo not shown) [CBK282152] reads 108%. With `CC1CCCN(C(=O)CCn2c(-c3ccccn3)cc3cccnc32)C1` (stereo not shown) [CBK282154] the figure was 91.2%; with `CCN(CC)C(=O)CCn1c(-c2cccnc2)cc2cccnc21` [CBK282160], 106%; with `CN(CCCN1CCCCC1)C(=O)C1Cc2cc(Cl)ccc2O1` (stereo not shown) [CBK282162], 104%. Consider `CC(C)c1cc(C(=O)N(CCO)CC2CC3C=CC2C3)n(C)n1` (stereo not shown) [CBK282164], for which the viability at 28.5 h, 10 µM came to 84.6%. `O=C(CCn1c(C(F)F)cc2cccnc21)NCC1CCCO1` (stereo not shown) [CBK282165]: the viability at 28.5 h, 10 µM was found to be 83%. The result for `CC(C(=O)N1CCC(c2nn(C)c3ncccc23)CC1)c1ccccc1` (stereo not shown) [CBK282166] reads 97.4%. With `CC(=O)NCCn1cc2c(n1)[C@H]1CN(C(=O)C(C)(C)C)C[C@H]1CC2` [CBK282168] the figure was 102%; with `CCCn1ncc(C(=O)N2CCC(Oc3ccccc3F)CC2)c1C` [CBK282169], 115%. The result for `CC(=O)NC(c1nccs1)C1CCCN(C(=O)C2CCCCC2)C1` (stereo not shown) [CBK282170] reads 113%; that for `CCc1cc(C(=O)N2CCC(Oc3ccccc3F)CC2)n(C)n1` [CBK282172], 109%; that for `Cc1ccc(-c2nc(C)sc2CC(=O)N(C)CCN(C)C)cc1` [CBK282175], 112%. For `O=C(C1CC2C=CC1C21CC1)N1CCC(Oc2ccccc2F)CC1` (stereo not shown) [CBK282179], the viability at 28.5 h, 10 µM came to 103%. As to `Cc1c(CN2CCCCC2CCN2CCCC2=O)oc2ccccc12` (stereo not shown) [CBK282181], the viability at 28.5 h, 10 µM worked out at 104%. For the molecule `CCC(CC)C(=O)N1C[C@H]2CCc3cn(CCNC(C)=O)nc3[C@H]2C1` [CBK282183], the viability at 28.5 h, 10 µM amounted to 104%. The result for `Cc1nn(CC(C)C(=O)N2CCCC(CN(C)C)C2)c(C)c1Cl` (stereo not shown) [CBK282186] reads 102%; that for `COc1ccc2c(c1)c(C)c(C(=O)N1CCCCC1CN(C)C)n2C` (stereo not shown) [CBK282190], 90.1%; that for `CN(C)CC1CCCCN1C(=O)C1CC(=O)N(c2cccc(F)c2)C1` (stereo not shown) [CBK282192], 108%. The result for `Cc1nc(SCC(=O)NCC2CCCOC2)oc1C` (stereo not shown) [CBK282195] reads 94.6%. The result for `Cc1nc(C)c(C(=O)NCCN2CCCCC2C)s1` (stereo not shown) [CBK282200] reads 106%; that for `O=C(CC1CCCCO1)Nc1cccc(Cn2ccnc2)c1` (stereo not shown) [CBK282204], 90.6%; that for `CCN1CCCCC1CNC(=O)c1cc(C2CC2)n[nH]1` (stereo not shown) [CBK282205], 91.1%. Regarding `CCN1CCCCC1CNC(=O)c1n[nH]c2c1CCC2` (stereo not shown) [CBK282207], the viability at 28.5 h, 10 µM was 96.2%.

For `CC(CNC(=O)Cn1nc(C(F)(F)F)c2c1CCC2)N1CCCC1` (stereo not shown) [CBK282212], the viability at 28.5 h, 10 µM amounted to 89.9%. The result for `CN(CC(F)(F)F)C(=O)CCc1nc(-c2cccs2)no1` [CBK282215] reads 89.8%; that for `O=C(C1C2CCCCC21)N1CCC(Oc2cccc(F)c2)CC1` (stereo not shown) [CBK282216], 106%; that for `COc1ccc2c(c1)CCCN2C(=O)CCn1ccc(C)n1` [CBK282217], 104%. The result for `CCc1noc(C)c1C(=O)NCCN1CCCCC1C` (stereo not shown) [CBK282219] reads 98.9%; that for `CC(Cn1cccn1)NCc1cn(C)c2cc(F)ccc12` (stereo not shown) [CBK282220], 88.4%; that for `Cc1nc(C)c(C(=O)NCCN2CCCC2=O)s1` [CBK282222], 84.2%.

Consider `Cc1nc(C)n(CCC(=O)NC(C)c2cccs2)n1` (stereo not shown) [CBK282224], for which the viability at 28.5 h, 10 µM was found to be 105%.

`CN1CC(c2ccccc2)C2(CCNCC2)C1` (stereo not shown) [CBK282225]: the viability at 28.5 h, 10 µM was 105%. With `Cc1csc(C(Cc2ccsc2)NC(=O)C2CC2C)n1` (stereo not shown) [CBK282226] the figure was 86.7%; with `Cc1csc(C(Cc2ccsc2)NC(=O)CC2CCCO2)n1` (stereo not shown) [CBK282227], 92.1%. With `Cc1nc(C(Cc2ccsc2)NC(=O)C2CCCNC2)sc1C` (stereo not shown) [CBK282228] the figure was 87.6%; with `Cc1nc(C2CCN(C(=O)c3ccncc3)CC2)c2sccn12` [CBK282235], 99.9%; with `Cc1nc(C2CCN(C(=O)c3ccccn3)CC2)c2sccn12` [CBK282238], 91.6%. The result for `O=C(Cc1ccccn1)NC(Cc1cccs1)c1ccccn1` (stereo not shown) [CBK282243] reads 93.1%. Consider `CCn1cc(-c2cncn2CCCn2ccnc2C(C)C)cn1` [CBK282244], for which the viability at 28.5 h, 10 µM was 89.4%. With `Cn1ncc2c1CCCN(C(=O)c1ccccc1C(F)(F)F)C2` [CBK282251] the figure was 84.1%.

With `Cn1ncc2c1CCCN(C(=O)c1cccc(C(F)(F)F)c1)C2` [CBK282252], the viability at 28.5 h, 10 µM came out at 87.3%. On to `Cn1cc(CN2C3CCC(C3)[C@@H]2COc2ccc(F)cc2)cn1` (stereo partly shown) [CBK282257], for which the viability at 28.5 h, 10 µM was determined as 106%. With `Cc1nn(C)c(C)c1-c1ccc(=O)n(Cc2ccc(F)cc2)n1` [CBK282258] the figure was 95.3%; with `CCCC(=O)N1CCCCC1c1c(-c2onc(C)c2C)cnn1C` (stereo not shown) [CBK282259], 94.7%.

Turning to `O=C(CCn1cccn1)N1Cc2ccccc2CC1C1CCOCC1` (stereo not shown) [CBK282262], the viability at 28.5 h, 10 µM is 83.8%. The result for `CC(C(=O)NCCc1cn(C)c2ccc(Cl)cc12)N1CCOCC1` (stereo not shown) [CBK282263] reads 94.6%. On to `Cc1ncncc1C(=O)N1CCCCC1CCc1ccccc1` (stereo not shown) [CBK282264], for which the viability at 28.5 h, 10 µM came out at 109%. With `Cc1cc2ncc3c(n2n1)CC1CCC3N1Cc1ccccc1` (stereo not shown) [CBK282266] the figure was 104%; with `O=CN1C2CCC1c1cnc3cc(-c4cccc(F)c4)nn3c1C2` (stereo not shown) [CBK282269], 91.9%; with `O=C1NC2=C(C(=O)N(CC3CCCO3)C2)C(c2ccc(F)c(F)c2)N1` (stereo not shown) [CBK282271], 98%. Regarding `O=C(NC1CC1)c1ccc(-n2cccn2)c(C#Cc2ccccn2)c1` [CBK282272], the viability at 28.5 h, 10 µM was determined as 106%. The result for `Cn1ccnc1C1(O)CCN(C(=O)Nc2ccc(F)cc2)CC1` [CBK282277] reads 97.4%. The result for `Cn1ccnc1C1(O)CCN(C(=O)Nc2ccccc2Cl)CC1` [CBK282278] reads 89.3%; that for `Cn1ccnc1C1(O)CCN(C(=O)Nc2cccc(F)c2)CC1` [CBK282279], 109%. The result for `CCCNC(=O)N1CCC(n2cnc3cccnc32)CC1` [CBK282282] reads 84.3%; that for `CN(C)CCn1c([C@@H]2CCCO2)cc2cccnc21` [CBK282288], 105%; that for `CCCNC(=O)N1CCC(n2c(C)nc3cccnc32)CC1` [CBK282292], 88.9%. Take `Cc1cccnc1C1(O)CCN(C(=O)NCc2ccccc2)CC1` [CBK282293]: the viability at 28.5 h, 10 µM came to 88%. With `O=c1c2sccc2nc2n1CCN(Cc1ccc(F)c(F)c1)CC2` [CBK282295] the figure was 103%. The result for `Cc1cc2cc(CNCCCN3CCCC3=O)c(=O)[nH]c2cc1C` [CBK282296] reads 81.4%.

As a reminder, the viability is a read-out of living cells in per cent, often relative to untreated cells.
